ChEMBL document CHEMBL3259764, “Pim kinase inhibitory and antiproliferative activity of a novel series of meridianin C derivatives” (Bioorg Med Chem Lett, 2014)
pEC50, pIC50: −log10 of the molar value.

Columns and labels:
[1] = target: Serine/threonine-protein kinase pim-1 (Homo sapiens, UniProt P11309); test: Inhibition of PIM1 kinase (unknown origin) using 5-FAM-labeled BAD peptide as substrate after 90 mins by fluorescence polarization assay
[2] = target: Serine/threonine-protein kinase pim-2 (Homo sapiens, UniProt Q9P1W9); test: Inhibition of PIM2 kinase (unknown origin) using 5-FAM-labeled BAD peptide as substrate after 90 mins by fluorescence polarization assay
[3] = target: Serine/threonine-protein kinase pim-3 (Homo sapiens, UniProt Q86V86); test: Inhibition of PIM3 kinase (unknown origin) using 5-FAM-labeled BAD peptide as substrate after 90 mins by fluorescence polarization assay
[4] = Antiproliferative activity against human MV411 cells assessed as cell viability after 24 hrs by MTS assay; format: functional, cell-based; conditions: MV4-11, 24 h
K562 = test: Antiproliferative activity against human K562 cells assessed as cell viability after 24 hrs by MTS assay; format: functional, cell-based; conditions: K562, 24 h
[5] = Antiproliferative activity against human Jurkat E6-1 cells assessed as cell viability after 24 hrs by MTS assay; format: functional, cell-based
Caco-2 = test: Permeability across human Caco2 cells; format: ADME, cell-based
[6] = target: CDK2/Cyclin A2 (Homo sapiens) (UniProt P24941+P20248); test: Inhibition of CDK2/cyclinA kinase (unknown origin) at 10 uM; format: protein-complex assay

Chain of Serine/threonine-protein kinase pim-1 (P11309 whole entry): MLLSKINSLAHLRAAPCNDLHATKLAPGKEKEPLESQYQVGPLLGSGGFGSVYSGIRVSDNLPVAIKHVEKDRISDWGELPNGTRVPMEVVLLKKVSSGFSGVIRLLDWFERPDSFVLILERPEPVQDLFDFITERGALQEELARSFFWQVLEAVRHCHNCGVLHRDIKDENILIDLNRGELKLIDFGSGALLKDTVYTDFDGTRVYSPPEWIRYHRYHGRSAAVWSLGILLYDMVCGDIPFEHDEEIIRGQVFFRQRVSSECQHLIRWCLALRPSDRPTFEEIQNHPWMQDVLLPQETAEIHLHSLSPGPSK
Chain of Serine/threonine-protein kinase pim-2 (Q9P1W9 whole entry): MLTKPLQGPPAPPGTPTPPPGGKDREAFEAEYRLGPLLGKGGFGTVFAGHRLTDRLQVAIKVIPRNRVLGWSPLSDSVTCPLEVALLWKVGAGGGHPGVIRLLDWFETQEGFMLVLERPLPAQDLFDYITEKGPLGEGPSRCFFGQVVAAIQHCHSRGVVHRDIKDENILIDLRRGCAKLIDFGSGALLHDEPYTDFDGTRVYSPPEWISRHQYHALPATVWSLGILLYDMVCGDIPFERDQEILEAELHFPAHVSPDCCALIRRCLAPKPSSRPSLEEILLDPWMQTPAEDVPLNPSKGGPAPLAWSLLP

Row | Compound | pIC50 [1] | pIC50 [2] | pIC50 [3] | pEC50 [4] | pEC50 (K562) | pEC50 [5] | permeability (Caco-2) | inhibition [6] [%]
1 | CN(C)CCNc1cncc(-c2ccc3[nH]cc(C(=O)C4CC4)c3c2)n1 | 6.57 | – | – | – | – | – | – | –
2 | CN(C)CCN(C)c1cncc(-c2ccc3[nH]cc(-c4ccnc(N)n4)c3c2)n1 | 8.10 | 6.74 | 8.11 | – | – | – | – | –
3 | CN(C)CCCOc1cncc(-c2ccc3[nH]cc(-c4ccnc(N)n4)c3c2)n1 | 7.73 | 6.27 | 7.69 | – | – | – | – | –
4 | CC(=O)c1c[nH]c2ccc(-c3cncc(NCCN(C)C)n3)cc12 | 6.57 | – | – | – | – | – | – | –
5 | CCOc1cncc(-c2ccc3[nH]cc(-c4ccnc(N)n4)c3c2)n1 | 7.35 | 6.13 | 7.29 | 6.30 | 4.68 | 4.82 | permeable | –
6 | CCN(CC)CCCNc1cncc(-c2ccc3[nH]cc(-c4ccnc(N)n4)c3c2)n1 | 7.76 | 6.04 | 7.52 | – | – | – | – | –
7 | CN(C)CCOc1cncc(-c2ccc3[nH]cc(-c4ccnc(N)n4)c3c2)n1 | 7.69 | 6.42 | 7.66 | 5.54 | 4.73 | 4.87 | – | –
8 | CN(C)CCOc1cncc(-c2ccc3[nH]cc(C(=O)c4ccccc4)c3c2)n1 | 6.40 | – | – | – | – | – | – | –
9 | CN(C)CCNc1cncc(-c2ccc3[nH]cc(-c4ccnc(N)n4)c3c2)n1 | 8.47 | 6.96 | 8.19 | – | – | – | permeable | –
10 | CCN(CC)CCOc1cncc(-c2ccc3[nH]cc(-c4ccnc(N)n4)c3c2)n1 | 7.59 | 6.23 | 7.52 | 5.48 | 4.75 | 4.84 | – | –
11 | CCN(CC)CCNc1cncc(-c2ccc3[nH]cc(-c4ccnc(N)n4)c3c2)n1 | 8.55 | 6.51 | 8.00 | – | – | – | – | –
12 | CN(C)CCCNc1cncc(-c2ccc3[nH]cc(-c4ccnc(N)n4)c3c2)n1 | 7.74 | 6.20 | 7.50 | – | – | – | – | –
13 | CN(C)/C=C/C(=O)c1c[nH]c2ccc(-c3cncc(NCCN(C)C)n3)cc12 | 6.43 | – | – | – | – | – | – | –
14 | CCN(CC)CCCOc1cncc(-c2ccc3[nH]cc(-c4ccnc(N)n4)c3c2)n1 | 7.46 | 6.18 | 7.25 | 5.82 | 4.86 | 4.96 | – | –
15 | Nc1nccc(-c2c[nH]c3ccc(Br)cc23)n1 [MERIDIANIN C] | 5.98 | – | – | – | – | – | – | –
16 | Nc1nccc(-c2c[nH]c3ccccc23)n1 | – | – | – | – | – | – | – | 54
17 | CN(C)/C=C/C(=O)c1c[nH]c2ccc(-c3cncc(OCCN(C)C)n3)cc12 | 5.95 | – | – | – | – | – | – | –
